Consider 23 compounds from PMC6151428, “Discovery of Novel N-Substituted Prolinamido Indazoles as Potent Rho Kinase Inhibitors and Vasorelaxation Agents” (Molecules : A Journal of Synthetic Chemistry and Natural …, 2017).

One may read the EC50 as the concentration that produces a half-maximal response. A word on the IC50: it is the point on the concentration scale where inhibition reaches its midpoint. The term inhibition denotes the drop in the measured response relative to a control, in per cent. A lower inhibition goes with a response near the control. As a reminder, the melting point is the temperature of the solid-liquid transition.

The test system of data set [1] is rat aortic rings. Nature of the data set: Vasorelaxant activity test, NE model. Particulars: rat aortic rings constricted with norepinephrine (1 μM); a: mean N = 6; b: single determination; -- = No activity. An excerpt: (§1) Abnormalities in the Rho/ROCK signaling pathway are associated with various cardiovascular diseases, especially hypertension. The inhibition of the Rho/ROCK pathway can cause the vessels to relax. The norepinephrine (NE)- or potassium chloride (KCl)-induced model of the rat aortic ring can trigger sustained vessel contraction and is usually used to evaluate vasorelaxant activity. DL0805 has shown vasorelaxant activity. Therefore, the nine compounds with significant inhibition against ROCK I were further tested for their vasorelaxant activity in rat aortic rings in both the high-potassium and NE models (Table 3). […] The potent active compound 4b with excellent activity has been further evaluated, and further pharmacokinetic and safety evaluations are in progress.
(§2) Male Sprague-Dawley rats weighing 240–280 g (Vital River Laboratories, Beijing, China) were maintained in a 12-h light/dark cycle at 24 °C in a relative humidity of 60% room, and received food and water ad libitum. The animal care and handling were performed in accordance with the Guide for the Care and Use of Laboratory Animals published by the US National Institutes of Health and the Laboratories Institutional Animal Care and Use Committee of the Chinese Academy of Medical Science and Peking Union Medical College (ethic approval number: 00001012).
(§3) The vasorelaxant activity assay was performed as described previously. Briefly, the descending thoracic aorta was isolated after rats were euthanized by cervical dislocation. Then, the aorta was cut into ring segments (3–4 mm in length). The endothelial layer of the aorta was destroyed by gently rubbing the luminal surface with a moist cotton swab when necessary. Two stainless-steel triangles were inserted into the lumen of each ring. One triangle was fixed, and the other attached to a force transducer. Changes in isometric force were recorded on a BIOPAC polygraph (MP100WSW, Biopac Systems, Inc, Goleta, CA, USA). The rings were mounted in organ baths containing 10 mL Krebs-Henseleit (K-H) buffer with the following composition (mM): NaCl 120, KCl 4.8, MgSO4 1.4, KH2PO4 1.2, glucose 11.0, CaCl2 2.5, NaHCO3 25.0 and EDTA 0.01. The K-H buffer was continuously bubbled with 95% O2/5% CO2 at 37 °C. Rings were allowed to equilibrate for 60 min at a resting tension of 1.2 g with changes of buffer every 20 min.
(§4) After the equilibration period, the aortic rings were constricted with a high K^+ (60 mM) K-H solution to stimulate the tissue and to test its availability. Then, the rings were washed with normal K-H buffer to restore the basic tension of 1.2 g. The aortic rings were then stimulated with a high K^+ (60 mmol/L) K-H buffer ornorepinephrine (1 μM) to evaluate the vasorelaxant effects of the compounds. When the contraction reached the platform, compounds were added to the bath in batches at 5-min intervals to reach the accumulative concentrations of 1, 2, 5, 10, 25 and 50 μM. The tension of vessels was recorded and nonlinear regression was used to calculate the EC50 values.

Data set [2] relates to rat aortic rings. The experiment in a line: Vasorelaxant activity test, high-potassium model. Particulars: rat aortic rings constricted with high K+ (60 mmol/L); a: mean N = 6; b: single determination; -- = No activity.
From the text: as §1, §2, §3, §4

Another data set has as its target T1, ROCK I (Homo sapiens, UniProt Q13464).
T1 construct: purchased Cyclex, Nagoya, Japan CY-1160
The experiment in a line: Rho kinase activity assay (Cyclex CY-1160 kit). The data set is classed as biochemical. Particulars: for IC50: a: means of multiple experiments (N = 4), errors within 30% of the mean, b: single determinations, read-out: IC50 against ROCK I; for ROCK I activity compared in words: comparison with DL0805 or between series. How it is done: Briefly, the compounds at 20 μM were pre-incubated in a system wherein ROCK I (0.02 ng/μL) phosphorylates the kinase substrate’s myosin-binding subunit (MBS) pre-absorbed onto the microplate in the presence of Mg^2+ and ATP. Then, the system was washed after incubation at 30 °C for 30 min. 100 μL of horseradish peroxidase-conjugated anti-AF20 antibody was added to the wells and then incubated for 30 min at room temperature. The reaction system was then incubated with the substrate tetra-methylbenzidine (TMB), which can be catalyzed from a colorless solution to a blue solution. The absorbance was measured at a wavelength of 450 nm on a microplate reader. The color reflects the relative level of ROCK I activity. The inhibitory rates of the compounds on ROCK I were obtained from OD 450 nm and the IC50 values were calculated by nonlinear regression.

[3] abbreviates: compound concentration 20 μM, single determinations.

T1 sequence (Q13464 whole entry, species assumed): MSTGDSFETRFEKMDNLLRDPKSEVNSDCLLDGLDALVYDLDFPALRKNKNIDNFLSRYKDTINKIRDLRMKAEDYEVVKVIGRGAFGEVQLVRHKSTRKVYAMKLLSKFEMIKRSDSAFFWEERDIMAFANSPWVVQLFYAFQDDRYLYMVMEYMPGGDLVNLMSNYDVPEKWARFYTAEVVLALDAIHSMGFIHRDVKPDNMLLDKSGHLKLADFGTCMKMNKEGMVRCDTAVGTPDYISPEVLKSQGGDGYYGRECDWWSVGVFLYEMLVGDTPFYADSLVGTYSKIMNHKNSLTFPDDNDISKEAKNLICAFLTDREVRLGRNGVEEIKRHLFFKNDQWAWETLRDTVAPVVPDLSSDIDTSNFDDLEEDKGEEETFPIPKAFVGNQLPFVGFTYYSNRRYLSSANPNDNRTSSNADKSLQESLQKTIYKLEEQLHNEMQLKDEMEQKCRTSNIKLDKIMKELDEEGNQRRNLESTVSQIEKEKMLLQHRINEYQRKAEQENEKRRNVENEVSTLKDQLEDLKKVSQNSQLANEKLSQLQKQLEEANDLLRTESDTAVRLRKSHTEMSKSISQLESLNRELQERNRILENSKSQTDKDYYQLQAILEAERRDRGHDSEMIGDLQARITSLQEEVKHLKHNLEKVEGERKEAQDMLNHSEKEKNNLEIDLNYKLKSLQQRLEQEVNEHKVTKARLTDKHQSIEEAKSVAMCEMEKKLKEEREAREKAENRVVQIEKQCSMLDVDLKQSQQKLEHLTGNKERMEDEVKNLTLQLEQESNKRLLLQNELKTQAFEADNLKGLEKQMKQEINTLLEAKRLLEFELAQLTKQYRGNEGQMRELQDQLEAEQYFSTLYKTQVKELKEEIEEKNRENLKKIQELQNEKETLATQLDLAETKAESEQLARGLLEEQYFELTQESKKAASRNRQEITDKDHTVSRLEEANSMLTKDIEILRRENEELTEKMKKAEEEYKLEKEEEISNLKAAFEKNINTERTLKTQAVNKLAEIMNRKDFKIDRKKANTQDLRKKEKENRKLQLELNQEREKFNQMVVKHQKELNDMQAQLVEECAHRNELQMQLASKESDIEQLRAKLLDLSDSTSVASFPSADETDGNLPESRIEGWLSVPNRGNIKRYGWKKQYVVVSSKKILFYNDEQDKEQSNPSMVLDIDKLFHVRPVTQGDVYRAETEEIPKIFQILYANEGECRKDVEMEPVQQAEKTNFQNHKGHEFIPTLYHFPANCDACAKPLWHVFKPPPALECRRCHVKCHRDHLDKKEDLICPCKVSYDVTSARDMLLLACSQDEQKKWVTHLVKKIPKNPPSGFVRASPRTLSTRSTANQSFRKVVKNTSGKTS

The compound `O=C(Nc1ccc2[nH]ncc2c1)[C@H]1CCN(Cc2ccccc2)C1` [Compound 4h, (S)-1-Benzyl-N-(1H-indazol-5-yl)pyrrolidine-3-carboxamide] showed a melting point of 203 to 204 °C. The same compound showed an EC50 in the data set with rat aortic rings [1] above 50 µM. The EC50 with rat aortic rings [2] is 32.4 µM. On ROCK I, the IC50 is 0.42 µM and the “ROCK I activity compared in words” value is reported as “activity profiles superior to DL0805”. Moreover, at ROCK I (setting [3]), 20 µM produced 54.8% inhibition.
`O=C(Nc1ccc2[nH]ncc2c1)C1CCN(Cc2ccc(Br)cc2)C1` (centres unmarked) [Compound 4d, 1-(4-Bromobenzyl)-N-(1H-indazol-5-yl)pyrrolidine-3-carboxamide]: the melting point was 235 to 236 °C. The compound also had an EC50 in the data set on rat aortic rings [1] of 46.8 µM. In the data set with rat aortic rings [2], the EC50 came out at 58.1 µM. Moreover, at ROCK I, the IC50 amounted to 0.51 µM and the “ROCK I activity compared in words” value is “activity profiles superior to DL0805”. At 20 µM the inhibition on ROCK I (setting [3]) was 62.5%.
As to `O=C(Nc1ccc2[nH]ncc2c1)C1CCN(C(=O)c2ccc(Br)cc2)C1` (centres unmarked) [Compound 5d, 1-(4-Bromobenzoyl)-N-(1H-indazol-5-yl)pyrrolidine-3-carboxamide], the melting point was in the range of 250 to 251 °C. In addition, on ROCK I (setting [3]), testing at 20 µM gave an inhibition of 27.9%.
For `O=C(Nc1ccc2[nH]ncc2c1)[C@H]1CCCN1Cc1ccccc1` [Compound 2b, (R)-1-Benzyl-N-(1H-indazol-5-yl)pyrrolidine-2-carboxamide], in that order: 199 to 201 °C and 24.3%.
For `O=C(Nc1ccc2[nH]ncc2c1)C1CCCN1Cc1ccccc1` (centres unmarked) [Compound 2a, 1-Benzyl-N-(1H-indazol-5-yl)pyrrolidine-2-carboxamide], in that order: 200 to 201 °C and 27.2%.
In the case of `COc1ccc(CN2CCC(C(=O)Nc3ccc4[nH]ncc4c3)C2)cc1` (centres unmarked) [Compound 4c, N-(1H-Indazol-5-yl)-1-(4-methoxybenzyl)pyrrolidine-3-carboxamide], the EC50 in the data set with rat aortic rings [1] was determined as 5.57 µM; in the data set on rat aortic rings [2], 5.8 µM. The IC50 at ROCK I stood at 1.86 µM. For the same compound, at ROCK I, the “ROCK I activity compared in words” value was “activity profiles superior to DL0805”. In addition, the inhibition at 20 µM against ROCK I (setting [3]) was determined as 53.3%.
In the case of `Cc1ccc(CN2CCC[C@@H]2C(=O)Nc2ccc3[nH]ncc3c2)cc1` [Compound 2e, (R)-N-(1H-Indazol-5-yl)-1-(4-methylbenzyl)pyrrolidine-2-carboxamide], the melting point lay within 203 to 205 °C.
In the case of `O=C(Nc1ccc2[nH]ncc2c1)C1CCN(C(=O)c2ccc([N+](=O)[O-])cc2)C1` (centres unmarked) [Compound 5e, N-(1H-Indazol-5-yl)-1-(4-nitrobenzoyl)pyrrolidine-3-carboxamide], the melting point is 177 to 178 °C. For the same compound, the inhibition at 20 µM at ROCK I (setting [3]) worked out at 45.4%.
In turn, `Cc1ccc(C(=O)N2CCC(C(=O)Nc3ccc4[nH]ncc4c3)C2)cc1` (centres unmarked) [Compound 5b, N-(1H-Indazol-5-yl)-1-(4-methylbenzoyl)pyrrolidine-3-carboxamide] came in with a melting point of 224 to 226 °C. In the data set on rat aortic rings [1], this compound returned an EC50 of 15.6 µM. It took 60.6 µM to reach a half-maximal effect in the data set with rat aortic rings [2] (EC50). For the same compound, on ROCK I, the IC50 stood at 11.5 µM. On ROCK I (setting [3]), the inhibition at 20 µM stood at 54.9%.
On to `O=C(Nc1ccc2cn[nH]c2c1)C1CCCN1Cc1ccccc1` (centres unmarked) [Compound 3a, 1-Benzyl-N-(1H-indazol-6-yl)pyrrolidine-2-carboxamide], for which the melting point was in the range of 195 to 196 °C. This compound also displayed an inhibition at 20 µM at ROCK I (setting [3]) of 16%.
For `O=C(Nc1ccc2cn[nH]c2c1)[C@@H]1CCCN1Cc1ccccc1` [Compound 3c, (S)-1-Benzyl-N-(1H-indazol-6-yl)pyrrolidine-2-carboxamide], in that order: 195 to 197 °C and 23.7%.
As for `O=C(Nc1ccc2[nH]ncc2c1)C1CCN(Cc2ccc(F)cc2)C1` (centres unmarked) [Compound 4g, 1-(4-Fluorobenzyl)-N-(1H-indazol-5-yl)pyrrolidine-3-carboxamide], the melting point was in the range of 202 to 203 °C. The compound further yielded an EC50 in the data set with rat aortic rings [1] of 8.91 µM. Besides, in the data set with rat aortic rings [2], the EC50 amounted to 19.5 µM. Further, at ROCK I, the IC50 was determined as 1.41 µM and the “ROCK I activity compared in words” value is “activity profiles superior to DL0805”. Besides, on ROCK I (setting [3]), testing at 20 µM gave an inhibition of 63.8%.
The compound `O=C(Nc1ccc2cn[nH]c2c1)[C@H]1CCCN1Cc1ccccc1` [Compound 3b, (R)-1-Benzyl-N-(1H-indazol-6-yl)pyrrolidine-2-carboxamide] had a melting point of 192 to 193 °C. On ROCK I (setting [3]), this compound registered an inhibition at 20 µM of 15%.
In turn, `Cc1ccc(CN2CCCC2C(=O)Nc2ccc3[nH]ncc3c2)cc1` (centres unmarked) [Compound 2d, N-(1H-Indazol-5-yl)-1-(4-methylbenzyl)pyrrolidine-2-carboxamide] yielded a melting point of 200 to 202 °C. The same compound gave an inhibition at 20 µM on ROCK I (setting [3]) of 26.6%.
As for `O=C(Nc1ccc2[nH]ncc2c1)[C@@H]1CCN(Cc2ccccc2)C1` [Compound 4i, (R)-1-Benzyl-N-(1H-indazol-5-yl)pyrrolidine-3-carboxamide], the melting point fell in the range of 203 to 204 °C. Further, in the data set with rat aortic rings [1], the EC50 came out at 11.5 µM. The response with rat aortic rings [2] was half-maximal at 6.02 µM (EC50). Also, the IC50 on ROCK I was found to be 7.32 µM. Also, testing at 20 µM against ROCK I (setting [3]) gave an inhibition of 73.9%.
For `O=C(Nc1ccc2[nH]ncc2c1)C1CCN(C(=O)c2ccccc2)C1` (centres unmarked) [Compound 5a, 1-Benzoyl-N-(1H-indazol-5-yl)pyrrolidine-3-carboxamide], the melting point was 211 to 213 °C. In addition, the inhibition at 20 µM on ROCK I (setting [3]) came out at 42.5%.
With `O=S(=O)(c1cccc2cnccc12)N1CCCNCC1` [fasudil, reference compound], the EC50 in the data set with rat aortic rings [1] turned out to be 4.65 µM; in the data set with rat aortic rings [2], 5.47 µM.
As to `O=C(Nc1ccc2[nH]ncc2c1)C1CCN(C(=O)c2ccc(Cl)cc2)C1` (centres unmarked) [Compound 5f, 1-(4-Chlorobenzoyl)-N-(1H-indazol-5-yl)pyrrolidine-3-carboxamide], the melting point is 225 to 227 °C. The compound also had an EC50 in the data set on rat aortic rings [1] above 50 µM. The compound further yielded an EC50 in the data set on rat aortic rings [2] above 50 µM. The IC50 on ROCK I came out at 7.26 µM. At ROCK I (setting [3]), this compound gave an inhibition at 20 µM of 55.2%.
For “N-(1H-Indazol-5-yl)-1-(4-methoxybenzyl)pyrrolidine-3-carboxamide [Compound 4e]”, at ROCK I (setting [3]), the “% Inhibition of ROCK I” value stood at 44.7%.
In turn, `Cc1ccc(CN2CCC[C@H]2C(=O)Nc2ccc3[nH]ncc3c2)cc1` [Compound 2f, (S)-N-(1H-Indazol-5-yl)-1-(4-methylbenzyl)pyrrolidine-2-carboxamide] showed a melting point of 204 to 206 °C. At ROCK I (setting [3]), this compound returned an inhibition at 20 µM of 21.3%.
On the same counts, the results for `O=C(Nc1ccc2[nH]ncc2c1)[C@@H]1CCCN1Cc1ccccc1` [Compound 2c, (S)-1-Benzyl-N-(1H-indazol-5-yl)pyrrolidine-2-carboxamide] are 202 to 203 °C and 24.6%.
For `N#Cc1ccc(CN2CCC(C(=O)Nc3ccc4[nH]ncc4c3)C2)cc1` (centres unmarked) [Compound 4f, 1-(4-Cyanobenzyl)-N-(1H-indazol-5-yl)pyrrolidine-3-carboxamide], in that order: 202 to 204 °C and 24.5%.
On to `COc1ccc(C(=O)N2CCC(C(=O)Nc3ccc4[nH]ncc4c3)C2)cc1` (centres unmarked) [Compound 5c, N-(1H-Indazol-5-yl)-1-(4-methoxybenzoyl)pyrrolidine-3-carboxamide], for which the melting point is 242 to 244 °C. Further, at ROCK I (setting [3]), the inhibition at 20 µM is 19.1%.
